Results reported in patent publication US11802133B2, “Heterocyclic compounds as monoacylglycerol lipase inhibitors” (Hoffmann-La Roche Inc., priority 2018, dated 2023).

Target: MAGL (Homo sapiens (Human), UniProt Q99685)
Test: 2-AG assay: MAGL inhibitory activity by hydrolysis of 2-arachidonoylglycerol to arachidonic acid (mass spectrometry)
Assay type: biochemical
Details: measured in 2-AG assay (footnote [b]); 8 μM 2-arachidonoylglycerol
Experimental: Alternatively, compounds were profiled for MAGL inhibitory activity by determining the enzymatic activity by following the hydrolysis of the natural substrate 2-arachidonoylglycerol resulting in arachidonic acid, which can be followed by mass spectrometry. This assay is hereinafter abbreviated “2-AG assay”.
A C18 SPE cartridge (G9205A) was used in an acetonitrile/water liquid setup. […] The activity of the compounds was calculated based on the ratio of intensities [arachidonic acid/d8-arachidonic acid].

Sequence of MAGL (Q99685 whole entry, species assumed): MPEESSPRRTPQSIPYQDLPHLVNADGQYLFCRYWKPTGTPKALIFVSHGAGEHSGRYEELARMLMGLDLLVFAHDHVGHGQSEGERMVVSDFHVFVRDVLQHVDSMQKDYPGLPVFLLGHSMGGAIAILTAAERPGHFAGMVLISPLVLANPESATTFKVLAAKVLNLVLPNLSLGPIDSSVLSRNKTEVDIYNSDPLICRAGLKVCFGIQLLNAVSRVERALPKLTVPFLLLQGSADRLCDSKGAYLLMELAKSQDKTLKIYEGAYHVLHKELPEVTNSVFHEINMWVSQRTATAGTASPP

| SMILES | IC50 [µM] |
| --- | --- |
| O=C1CO[C@H]2CCN(C(=O)N3CC(Oc4cc(Cl)cc(N5CC6(CCC6)C5)c4)C3)C[C@H]2N1 [Example 277, (+)-(4aR,8aS)-6-[3-[3-(2-Azaspiro[3.3]heptan-2-yl)-5-chloro-phenoxy]azetidine-1-carbonyl]-4,4a,5,7,8,8a-hexahydropyrido[4,3-b][1,4]oxazin-3-one] | 0.455 |
| O=C1CO[C@H]2CCN(C(=O)N3CC(Cc4cccc(OC(F)(F)F)c4)C3)C[C@H]2N1 [Example 282] | 0.136 |
| N#Cc1cc(OC2CN(C(=O)N3CC[C@@H]4OCC(=O)N[C@@H]4C3)C2)ccc1C(F)(F)F [Example 263, (+)-5-[1-[(4aR,8aS)-3-Oxo-4,4a,5,7,8,8a-hexahydropyrido[4,3-b][1,4]oxazine-6-carbonyl]azetidin-3-yl]oxy-2-(trifluoromethyl)benzonitrile] | 1.1 |
| Cc1cc(OCC2CCN(C(=O)N3CC[C@@H]4OCC(=O)N[C@@H]4C3)CC2)cnc1C(F)(F)F [Example 89] | 0.034 |
| O=C1CO[C@H]2CCN(C(=O)N3CC(COc4ccc(C(F)(F)F)c(F)n4)C3)C[C@H]2N1 [Example 223, (4aR,8aS)-6-[3-[[6-Fluoro-5-(trifluoromethyl)-2-pyridyl]oxymethyl]azetidine-1-carbonyl]-4,4a,5,7,8,8a-hexahydropyrido[4,3-b][1,4]oxazin-3-one] | 0.075 |
| O=C1CO[C@H]2CCN(C(=O)N3CC(Oc4ccc(C(F)(F)F)c(Cl)c4)C3)C[C@H]2N1 [Example 261] | 0.048 |
| COc1cc(COC2CN(C(=O)N3CC[C@@H]4OCC(=O)N[C@@H]4C3)C2)ccc1C(F)(F)F [Example 88] | 0.005 |
| Cc1ccc(/C=C/C2CN(C(=O)N3CC[C@@H]4OCC(=O)N[C@@H]4C3)C2)c(F)c1 [Example 287] | 0.006 |
| O=C1CO[C@H]2CCN(C(=O)N3CC(Oc4ccc(C(F)(F)F)c(N5CC6(C5)CC(F)(F)C6)c4)C3)C[C@H]2N1 [Example 269, (+)-(4aR,8aS)-6-[3-[3-(6,6-Difluoro-2-azaspiro[3.3]heptan-2-yl)-4-(trifluoromethyl)phenoxy]azetidine-1-carbonyl]-4,4a,5,7,8,8a-hexahydropyrido[4,3-b][l,4]oxazin-3-one] | 0.024 |
| O=C1CO[C@H]2CCN(C(=O)N3CCC(Oc4ccc(Cl)c(-c5ccc(Cl)cc5)c4F)CC3)C[C@H]2N1 [Example 212] | 0.003 |
| O=C1CO[C@H]2CCN(C(=O)N3CCC(Oc4ccc(Cl)c(N5CCOCC5)c4)CC3)C[C@H]2N1 [Example 121] | 0.151 |
| O=C1CO[C@H]2CCN(C(=O)N3CC(Oc4ccc(C(F)(F)F)c(N5CC(F)(F)C5)c4)C3)C[C@H]2N1 [Example 267, (+)-(4aR,8aS)-6-[3-[3-(3,3-Difluoroazetidin-1-yl)-4-(trifluoromethyl)phenoxy]azetidine-1-carbonyl]-4,4a,5,7,8,8a-hexahydropyrido[4,3-b][l,4]oxazin-3-one] | 0.042 |
| O=C1CO[C@H]2CCN(C(=O)N3CC(Oc4cccc(C5CC5)c4Cl)C3)C[C@H]2N1 [Example 259] | 0.015 |
| O=C1CO[C@H]2CCN(C(=O)N3CCC(Oc4ccc(C(F)(F)F)c(N5CCOCC5)c4)CC3)C[C@H]2N1 [Example 206] | 0.023 |
| O=C1CO[C@H]2CCN(C(=O)N3CC(COc4cc(C(F)(F)F)cc(F)n4)C3)C[C@H]2N1 [Example 222, (4aR,8aS)-6-[3-[[6-Fluoro-4-(trifluoromethyl)-2-pyridyl]oxymethyl]azetidine-1-carbonyl]-4,4a,5,7,8,8a-hexahydropyrido[4,3-b][1,4]oxazin-3-one] | 0.143 |
| O=C1CO[C@H]2CCN(C(=O)N3CCC(Oc4ccc(C(F)(F)F)c(C5CC5)c4)CC3)C[C@H]2N1 [Example 208] | 0.003 |
| O=C1CO[C@H]2CCN(C(=O)N3CC(Oc4ccc(C(F)(F)F)cc4)C3)C[C@H]2N1 [Example 118] | 0.132 |
| C[C@@H]1[C@@H](Oc2cc(C(F)(F)F)ccc2Br)CCN1C(=O)N1CC[C@@H]2OCC(=O)N[C@@H]2C1 [Example 247] | 1.1 |
| O=C1CO[C@H]2CCN(C(=O)N3CC(Oc4ccc(Cl)c(C(F)(F)F)c4)C3)C[C@H]2N1 [Example 204] | 0.1 |
| Cc1cc(OC(F)(F)F)ccc1COC1CN(C(=O)N2CC[C@@H]3OCC(=O)N[C@@H]3C2)C1C (some centres unmarked) [Example 252] | 0.005 |
| O=C1CO[C@H]2CCN(C(=O)N3CC(Oc4ccc(C(F)(F)F)cc4Cl)C3)C[C@H]2N1 [Example 213] | 0.098 |
| Cc1cccc(COC2CN(C(=O)N3CC[C@@H]4OCC(=O)N[C@@H]4C3)C2)c1C [Example 290] | 0.044 |
| O=C1CO[C@H]2CCN(C(=O)N3CC(OCc4ccc(C(F)(F)F)c(Oc5ccc(F)cc5)n4)C3)C[C@H]2N1 [Example 243] | 0.01 |
| O=C1CO[C@H]2CCN(C(=O)N3CCC(Oc4cccc(C(F)(F)F)c4Cl)CC3)C[C@H]2N1 [Example 257] | 0.014 |
| Cc1cc(C(F)(F)F)ccc1COC1CN(C(=O)N2CC[C@@H]3OCC(=O)N[C@@H]3C2)C1 [Example 292] | 0.005 |

| SMILES | IC50 [µM] |
| --- | --- |
| CC1(F)CN(c2cc(OC3CN(C(=O)N4CC[C@@H]5OCC(=O)N[C@@H]5C4)C3)ccc2C(F)(F)F)C1 [Example 268, (+)-(4aR,8aS)-6-[3-[3-(3-Fluoro-3-methyl-azetidin-1-yl)-4-(trifluoromethyl)phenoxy]azetidine-1-carbonyl]-4,4a,5,7,8,8a-hexahydropyrido[4,3-b][l,4]oxazin-3-one] | 0.028 |
| O=C1CO[C@H]2CCN(C(=O)N3CC(Oc4ccc(Cl)c(C5CC5)c4)C3)C[C@H]2N1 [Example 256] | 0.011 |
| Cc1ccc(COC2CN(C(=O)N3CC[C@@H]4OCC(=O)N[C@@H]4C3)C2)c(C)c1 [Example 291] | 0.028 |
| O=C1CO[C@H]2CCN(C(=O)N3CC(OCc4ccc(F)cc4C(F)(F)F)C3)C[C@H]2N1 [Example 280] | 0.041 |
| O=C1CO[C@H]2CCN(C(=O)N3CCC(COc4ccccc4Cl)C3)C[C@H]2N1 (some centres unmarked) [Example 91] | 0.099 |
| O=C1CO[C@H]2CCN(C(=O)N3CC(OCc4ccc(C(F)(F)F)cn4)C3)C[C@H]2N1 [Example 230] | 0.073 |
| O=C1CO[C@H]2CCN(C(=O)N3CC(OCc4ccc(Cl)cc4Cl)C3)C[C@H]2N1 [Example 87] | 0.006 |
| O=C1CO[C@H]2CCN(C(=O)N3CC(OCc4cc(C(F)(F)F)cc(Oc5ccc(F)cc5)n4)C3)C[C@H]2N1 [Example 242] | 0.012 |
| O=C1CO[C@H]2CCN(C(=O)N3CCC(Cc4nc5ccncc5o4)CC3)C[C@H]2N1 [Example 124] | 1.03 |
| Cc1cc(OC[C@H]2CCN(C(=O)N3CC[C@@H]4OCC(=O)N[C@@H]4C3)C[C@H]2C)cnc1C(F)(F)F [Example 232] | 0.061 |
| O=C1CO[C@H]2CCN(C(=O)N3CCC(Oc4cc(C(F)(F)F)ccc4F)C3)C[C@H]2N1 (some centres unmarked) [Example 283] | 0.179 |
| O=C1CO[C@H]2CCN(C(=O)N3CC(Oc4ccc(Cl)c(Br)c4)C3)C[C@H]2N1 [Example 264] | 0.084 |
| N#Cc1cc(OC2CCN(C(=O)N3CC[C@@H]4OCC(=O)N[C@@H]4C3)CC2)ccc1C(F)(F)F [Example 262] | 0.181 |
| O=C1CO[C@H]2CCN(C(=O)N3CC(CC(F)(F)c4ccc(C(F)(F)F)cc4)C3)C[C@H]2N1 [Example 281] | 0.035 |
| O=C1CO[C@H]2CCN(C(=O)N3CCC(Oc4cc(-n5cncn5)cc(C(F)(F)F)c4)CC3)C[C@H]2N1 [Example 203] | 0.871 |
| O=C1CO[C@H]2CCN(C(=O)N3CC(Oc4cc(Cl)cc(N5CCCC5)c4)C3)C[C@H]2N1 [Example 278, (+)-(4aR,8aS)-6-[3-(3-Chloro-5-pyrrolidin-l-yl-phenoxy)azetidine-1-carbonyl]-4,4a,5,7,8,8a-hexahydropyrido[4,3-b][1,4]oxazin-3-one] | 0.211 |
| Cc1ccc(COC2CN(C(=O)N3CC[C@@H]4OCC(=O)N[C@@H]4C3)C2)cc1C(F)(F)F [Example 294] | 3 |
| Cc1ccc(CCC2CN(C(=O)N3CC[C@@H]4OCC(=O)N[C@@H]4C3)C2)c(C(F)(F)F)c1 [Example 219] | 0.002 |
| O=C1CO[C@H]2CCN(C(=O)N3CC(Oc4cccc(N5CC6(CCCCO6)C5)c4Cl)C3)C[C@H]2N1 [Example 276, (+)-(4aR,8aS)-6-[3-[2-chloro-3-(5-oxa-2-azaspiro[3.5]nonan-2-yl)phenoxy]azetidine-1-carbonyl]-4,4a,5,7,8,8a-hexahydropyrido[4,3-b][1,4]oxazin-3-one] | 0.019 |
| O=C1CO[C@H]2CCN(C(=O)N3CC(Oc4ccc(C(F)(F)F)c(N5CC6(CCC6)C5)c4)C3)C[C@H]2N1 [Example 265, (+)-(4aR,8aS)-6-[3-[3-(2-Azaspiro[3.3]heptan-2-yl)-4-(trifluoromethyl)phenoxy]azetidine-1-carbonyl]-4,4a,5,7,8,8a-hexahydropyrido[4,3-b][1,4]oxazin-3-one] | 0.006 |
| O=C1CO[C@H]2CCN(C(=O)N3CCC(Oc4ccc(Cl)c(-n5cncn5)c4)CC3)C[C@H]2N1 [Example 207] | 0.05 |
| O=C1CO[C@H]2CCN(C(=O)N3CC(OCc4ccc(C(F)(F)F)cc4C(F)(F)F)C3)C[C@H]2N1 [Example 249] | 0.005 |
| O=C1CO[C@H]2CCN(C(=O)N3CC(Oc4cccc(Br)c4Cl)C3)C[C@H]2N1 [Example 258] | 0.048 |
| O=C1CO[C@H]2CCN(C(=O)N3CCC(Oc4cc(C(F)(F)F)ccc4F)C3)C[C@H]2N1 (some centres unmarked) [Example 285] | 2.6 |
| Cc1ccc(COC2CN(C(=O)N3CC[C@@H]4OCC(=O)N[C@@H]4C3)C2)c(C(F)(F)F)c1 [Example 217] | 0.01 |
